Reference: US20230149336A1, “PREPARATION FOR USE AS ANTIOXIDANT” (Evonik Operations GmbH, priority 2020, published 2023)
Entries after “also recorded” stand apart in the source; their conditions may differ.

Columns and labels:
NADPH oxidase (NOX) = test: NADPH oxidase activity after stimulation with Angiotensin II; format: cell-based, mice; settings: chemiluminescence per minute, mixtures ratio 1:1
Description: Moreover, the analysis of NADPH oxidase (NOX) activity after stimulation with Angiotensin II, a gold-standard inducer of NOX activation was performed.
(§1) Vessels were pre-treated with single anthocyanins (50 μg/mL) for 1 hours and then stimulated with Angiotensin II for 15 minutes prior to the acquisition. (A) Measurement of ROS production by DHR123 in vessels treated with single anthocyanins and combination of anthocyanins mixed with a ratio 1:1. (B) NADPH oxidase activity in mesenteric arteries exposed to HB or single anthocyanins or combination of anthocyanins mixed with a ratio 1:1. Data are expressed as increase of chemiluminescence per minute.

mice mesenteric arteries [1] = test: Angiotensin II-induced ROS formation (DHE, DHR123); format: cell-based; settings: 50 μg/mL for 1 hour, then Angiotensin II 15 minutes; DHE and DHR123; mixtures ratio 1:1
Description: Dihydroethidium (DHE, Life Technologies) was used to evaluate production of reactive oxygen species (ROS) in mouse mesenteric arteries, as previously described. Briefly, vessels were incubated with 5 μM of DHE for 20 min and subsequently observed under a fluorescence microscope (Zeiss). Images were acquired by a digital camera system (Olympus Soft Imaging Solutions). […] After treatment, vessels were incubated with Krebs solution containing 5 μM DHR123 for 30 min at 37° C., and then washed two times with PBS prior to fluorescence measurement using a fluorescence microplate reader (TECAN infinite 200 Pro).
To investigate the capability of Healthberry 865® and the single anthocyanins contained on the modulation of oxidative stress, several methodological approaches were performed measuring both, total anti reactive oxygen species (ROS) capacity and their specific action on the modulation of the main machinery of ROS production, the activity of NADPH oxidase enzyme. […] The antioxidant vascular actions of single anthocyanins contained in Healthberry 865®: Delphinidin-3-rutinoside (D3-rut), Cyanidin-3-rutinoside (C3-rut), Delphinidin glucoside (DP3-glu), Cyanidin-3-glucoside (C3-glu), Petunidin-3-glucoside (PT3-glu), Delphinidin galactoside (DP3-gal), Peonidin-3-galactoside (PEO3-gal), Delphinidin-3-arabinoside (DP3-ara), Malvidin-3-galactoside (MAL3-gal), Malvidin-3-glucoside (MAL3-glu), Cyanidin-3-galactoside (C3-gal) and Cyanidin-3-arabinopyranoside (C3-arapy) were analyzed.
as §1

mice mesenteric arteries [2] = test: Vascular reactivity: vasorelaxation of phenylephrine-precontracted mice mesenteric arteries; format: cell-based; settings: increasing doses (5-300 μg/mL), phenylephrine-precontracted vessels
Description: Second-order branches of the mesenteric arterial tree were removed from mice to perform vascular studies. […] First, an analysis of vascular reactivity curves was performed.

Compound | NADPH oxidase (NOX) activity (NADPH oxidase (NOX)) | Angiotensin II-induced ROS formation (mice mesenteric arteries [1]) | vasorelaxant action (mice mesenteric arteries [2])
OC[C@H]1O[C@@H](Oc2cc3c(O)cc(O)cc3[o+]c2-c2ccc(O)c(O)c2)[C@H](O)[C@@H](O)[C@@H]1O [C3-glu, Cyanidin-3-glucoside] | able to reduce NOX activity; also recorded: the most powerful anthocyanins closer to the potent effect of Healthberry 865® | able to reproduce the antioxidant action of Healthberry 865® | –
C[C@@H]1O[C@@H](OC[C@H]2O[C@@H](Oc3cc4c(O)cc(O)cc4[o+]c3-c3ccc(O)c(O)c3)[C@H](O)[C@@H](O)[C@@H]2O)[C@H](O)[C@H](O)[C@H]1O [C3-rut, Cyanidin-3-rutinoside] | able to reduce NOX activity | able to reproduce the antioxidant action of Healthberry 865® | –
OC[C@H]1O[C@@H](Oc2cc3c(O)cc(O)cc3[o+]c2-c2cc(O)c(O)c(O)c2)[C@H](O)[C@@H](O)[C@@H]1O [DP3-glu, Delphinidin-3-glucoside] | able to reduce NOX activity | able to reproduce the antioxidant action of Healthberry 865® | –
NCCCC[C@H](N)C(=O)O [L-Lysine] | – | – | did not evoke any vasorelaxant effect
COc1cc(-c2[o+]c3cc(O)cc(O)c3cc2O[C@@H]2O[C@H](CO)[C@H](O)[C@H](O)[C@H]2O)cc(OC)c1O [MAL3-gal, Malvidin-3-galactoside] | able to reduce NOX activity | able to reproduce the antioxidant action of Healthberry 865® | –
COc1cc(-c2[o+]c3cc(O)cc(O)c3cc2O[C@@H]2O[C@H](CO)[C@@H](O)[C@H](O)[C@H]2O)cc(OC)c1O [MAL3-glu, Malvidin-3-glucoside] | able to reduce NOX activity; also recorded: the most powerful anthocyanins closer to the potent effect of Healthberry 865® | able to reproduce the antioxidant action of Healthberry 865® | –
Peonidin-3-galactoside [PEO3-gal] | able to reduce NOX activity | able to reproduce the antioxidant action of Healthberry 865® | –
